Test results as given in US11266616B2, “Compositions and methods for inhibiting kinase activity” (BRANDEIS UNIVERSITY, priority 2016, dated 2022).
Entries after “also recorded” stand apart in the source; their conditions may differ.

Molecular target: T1, Aurora A kinase and TPX2 (Homo sapiens, UniProt O14965, T288V)
T1 construct: 1 μM A^122-403 T288V, 100 μM TPX2^1-45 and 1 mM kemptide was used
T1 sequence (O14965 122-403 T288V): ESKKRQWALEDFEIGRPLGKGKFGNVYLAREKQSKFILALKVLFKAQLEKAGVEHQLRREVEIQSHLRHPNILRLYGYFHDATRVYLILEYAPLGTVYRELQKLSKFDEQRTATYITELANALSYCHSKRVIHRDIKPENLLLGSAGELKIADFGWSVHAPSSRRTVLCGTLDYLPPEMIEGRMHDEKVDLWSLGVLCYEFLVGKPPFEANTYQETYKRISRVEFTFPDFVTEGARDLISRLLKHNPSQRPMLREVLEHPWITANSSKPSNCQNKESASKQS
Experiment: Kemptide phosphorylation by dephosphorylated Aurora A kinase and TPX2 with increasing PS48 (TPX2 competition)
Format: biochemical
Conditions: 1 μM A122-403 T288V, 100 μM TPX2 1-45, 1 mM kemptide; FIGS. 28A-28B
Method: FIGS. 28A-28B is a set of plots showing PS48 binds to the TPX2 binding site of Aurora A kinase and PS48 competes with TPX2 for binding to Aurora A kinase in vitro. FIG. 28A is a plot showing measurements of phosphorylation of kemptide (a peptide substrate for Aurora A kinase) when incubated with dephosphorylated Aurora A kinase and TPX2 and various increasing amounts of PS48. […] In the assays shown, 1 μM A^122-403 T288V, 100 μM TPX2^1-45 and 1 mM kemptide was used.
Aurora A, either phosphorylated/dephosphorylated wild type or mutant protein, was mixed with either AP ([…]) (SEQ ID NO: 5), Kemptide (LRRASLG) (SEQ ID NO: 6), or Lats2 ([…]) (SEQ ID NO: 7), in the absence or presence of 50 μM TPX2 in kinase buffer (20 mM TrisHCl, 200 mM NaCl, 3% [vol/vol] glycerol, 20 mM MgCl2, 1 mM TCEP, pH 7.50). These substrates comprise the consensus sequence for Aurora A ([R/K/N]—R—X—[S/T]-B where B is any hydrophobic residue with the exception of Pro) (Ferrari et al., 2005, Biochem. J., 390(Pt 1):293-302; Ohashi et al., 2006, Oncogene, 25:7691-7702; Sardon et al., 2010, EMBO Reports, 11:977-984). Peptides were ordered through Genscript. For HPLC-based activity assays the following protocol was used. The reaction was initiated with the addition of 5 mM ATP. […]

With `O=C(O)/C=C(/CCc1ccc(Cl)cc1)c1ccccc1` [PS48] the “effect of PS48 on kinase activity of Aurora A incubated with TPX2” value was “inhibits kinase activity by competing off TPX2 binding; also recorded: disrupting binding of TPX2 to Aurora A kinase”.
